Legend:
[1] = tested on: H2BK20ac; assay: ChIP-seq for H2BK20ac in SUDHL5; assay type: cell-based, human; details: SUDHL5, 1 nM, 1 hour
Procedure: 25–30 million cells were treated with TCIP3 or DMSO for indicated timepoints. Cells were washed in PBS containing TCIP3 or DMSO and crosslinked for 11 min in CiA Fix Buffer (50 mM HEPES pH 8.0, 1 mM EDTA, 0.5 mM EGTA, 100 mM NaCl) with addition of formaldehyde to a final concentration of 1%. The crosslinking reaction was quenched by glycine added at 0.125 M final concentration. Crosslinked cells were centrifuged at 1,000 × g for 5 min. […] Library size distributions were confirmed using an Agilent Bioanalyzer and High Sensitivity DNA reagents (Agilent 5067) and concentrations determined by qPCR. […]
The data quality was checked using fastq (https://www.bioinformatics.babraham.ac.uk/projects/fastqc/). The raw reads were trimmed from adapters with cutadapt (parameters: -a […] -A […]) and raw reads were aligned to hg38 human genome assembly using bowtie2 (parameters: --local --maxins 1000). Low quality reads, duplicated reads and reads with multiple alignments were removed using samtools[120] and Picard (https://broadinstitute.github.io/picard/). macs2[121] was used to map position of peaks with FDR cutoff of 0.05. […] All browser tracks and metaprofiles shown were calculated with sequence-depth-normalized, replicate-merged (bigWigMerge[125]) and, for ChIP-seq, input-subtracted data (deeptools bigWigCompare). […]

[2] = tested on: CBP^BD-BCL6^BTB; assay: TR-FRET ternary assay CBPBD-BCL6BTB; assay type: binding, human
Procedure: 10 μL reactions containing 10 nM 6x-His- p300^BD or 6x-His-CBP^BD, 200 nM BiotinylatedAvi-BCL6^BTB, 20 nM streptavidin-FITC (SA1001, Thermo), and 1:400 anti-6x-His-terbium (PerkinElmer 61HI2TLF) in buffer containing 20 mM HEPES pH 7.5, 150 mM NaCl, 0.1% BSA, 0.1% NP-40, and 1 mM TCEP were plated in low-volume 384 well plates. Drugs were digitally dispensed (Tecan D300e) into protein-containing wells, and the plate was allowed to incubate in the dark for 1 hour at room temperature. Emission at 490 nm (terbium) and 520 nm (FITC) was measured on a PHERAstar FS plate reader (BMG Labtech) upon excitation with 337 nm. The ratio of signal at 520 nm to 490 nm was calculated and normalized to DMSO-treated protein.

[3] = target: T1, BRPF1 (Homo sapiens, UniProt P55201); assay: BROMOscan binding to recombinant human bromodomains; details: 10 μM
T1 construct: purchased BROMOscan (service)

[4] = tested on: BCL6-repressed GFP reporter; assay: BCL6 reporter assay (BCL6-repressed GFP) in K422 cells; assay type: cell-based, human; details: 24 h, highest GFP signal
Procedure: KARPAS422 cells were lentivirally transduced with a construct containing the reporter. Description of the reporter construct has been published previously. After selection, cells were plated and treated with indicated amount of compound for 24 hours. Cells were washed in 2.5% FBS/PBS, stained with 1:250 v/v of 7-AAD (BD 559925) to distinguish live from dead cells, and harvested for flow cytometry on a BD Accuri. Given the polyclonal population after transduction, the area under the curve of the histogram representing FITC signal across all live cells was calculated as an integrative measure of total GFP signal. A GFP-positive gate two standard deviations from the mean was drawn from non-transduced cells and the area past a constant threshold was calculated and normalized to the signal from cells treated with DMSO.

T1 sequence (P55201 628-732 limits assumed): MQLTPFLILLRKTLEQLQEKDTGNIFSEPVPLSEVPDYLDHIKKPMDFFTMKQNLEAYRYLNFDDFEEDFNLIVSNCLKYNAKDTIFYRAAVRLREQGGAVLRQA

CNC(=O)COc1cc2cc(Nc3nc(N4CCC(C(=O)N5CCN(CCC(=O)N6CCC(n7nc(N8CCCc9cc(-c%10cnn(C)c%10)c(C(F)F)cc98)c8c7CCN(C(=O)NC)C8)CC6)CC5)CC4)ncc3Cl)cc(OC)c2n(C)c1=O [TCIP3]
H2BK20ac peaks gained [1]: 936 | H2BK20ac peaks lost [1]: 4,346 | TR-FRET signal AUC, times higher than NEG1 [2]: 16 times | TR-FRET signal AUC, times higher than NEG2 [2]: 25 times | bromodomain selectivity [3]: may also engage BRPF1 at high compound concentrations | GFP signal relative to DMSO treatment [4]: 10 times

— article doi:10.1101/2025.03.14.643404, “A Bivalent Molecular Glue Linking Lysine Acetyltransferases to Oncogene-induced Cell Death” (bioRxiv, 2025)
